From article PMC5126668 (PeerJ, 2016)
Several values for one entry are separate records, joined by “and”; a condition that tells them apart may be missing. Equal entries are not always repeated. Where two headings read alike, the source gives them in different places.

Key:
[1] = HK-2 cell viability, MTT assay, with or without co-cultured HLMs; assay type: cell-based, human; details: human; for viability at 4 h, 30 µM: BAK 30 µM; for viability at 4 h, 75 µM: BAK 75 µM; for viability at 4 h, 90 µM: BAK 90 µM; for viability at 4 h, 45 µM: BAK 45 µM; for viability at 4 h, 60 µM: BAK 60 µM
Experimental: (§1) HK-2 cells obtained from Peking Union Medical College were maintained in D/F12 medium containing 10% fetal bovine serum, 2 mM glutamine and 1 × 10^5 U/L penicillin and streptomycin at 37 °C in a 5% CO2 atmosphere. […] The samples containing HLMs were prepared in an ice bath, and three replicates were tested for each dose. In brief, HK-2 cells (100 µL) were seeded at 3 × 10^5cells/mL in 96-well plates. After 12 h, 200 µL of the test compound was added. For the BAK and GA with HLMs group, GA was pre-incubated with NADPH in HLMs for 30 min at 37 °C and then mixed with BAK; for the other groups, all tested compounds except NADPH were mixed, and NADPH was then added to start the metabolic reaction. After 4 h of culture, 100 µL of 0.5 g/L MTT was added, and the cells were cultured for 4 h. Subsequently, 150 µL of 4% isopropanol was added to cells for 15 min at 37 °C, and the absorbance at 570 nm was then read by a microplate reader (Multiskan MK3, Thermo, USA). The relative cell viability (%) was calculated as follows: Mean Absorbance of Sample/Mean Absorbance of Vehicle Control × 100%.

[2] = test system: HK-2 cells; test: as above; assay type: cell-based, human; details: BAK combined with GA
Experimental: as §1

[3] = test system: BAK metabolism in HLMs; test: Metabolic elimination of BAK in HLMs and its inhibition by GA (HPLC); assay type: in vitro ADME, human; details: for Remaining percentage of BAK (%) / remaining of BAK (%), single samples: BAK 10 µM; for Remaining percentage of BAK (%): HLMs 0.5 g/L, mean; for remaining of BAK (%), single samples: t=30 min
Experimental: The HLM mixtures were prepared on ice. […] At the end of the incubation (0 or 30 min), 200 µL of methanol-acetonitrile (1:1, V:V) solution containing tanshinone II A (internal standard) was added to terminate the reaction. The mixtures were then vortexed for 2 min followed by centrifugation at 14,500 rpm for 10 min. A 10 µL aliquot of the supernatant was then injected for HPLC analysis. […] RContr is the percentage of BAK remaining in the BAK group.

[4] = BAK exposure in rat liver and kidney 24 h after dosing; assay type: in vivo, Sprague–Dawley rats; details: for concentration at 24 h: Sprague-Dawley, po, 200 mg/kg
Experimental: The liver and kidney tissue were also collected from individual rats 24 h after dosing, weighed and then homogenized in saline solution (0.6 g wet weight/mL) on ice. Subsequently, 10 µL of internal standard solution (tanshinone II A, 10 µg/mL) and 0.3 mL of acetonitrile were added to 0.1 mL of plasma or homogenates, and centrifuged at 13,300 rpm for 15 min after 2 min of vortexing. The supernatant was reconstituted in 100 µL of mobile phase after drying under 40 °C nitrogen, the mixture then was vortexed for 5 min and centrifuged at 13,300 rpm for 15 min. Finally, 20 µL of supernatant was injected for HPLC analysis. […] The mobile phase consisted of methanol and water with 0.1% formic acid (89:11, v/v) and was supplied at a flow rate of 0.8 mL/min. The detection wavelength was set to 262 nm. […] The recovery was >93%.

[5] = with HLM, raw data, read-out: cell viability(%), single values
[6] = HK-2 cells co-cultured with HLMs (0.16 g/L), with HLMs 0.16 g/L, 4 h, mean, read-out: HK-2 Cell viability (%)
[7] = HK-2 cells, without HLMs, without HLMs, 4 h, mean, read-out: HK-2 Cell viability (%)

C=C[C@@](C)(/C=C/c1ccc(O)cc1)CCC=C(C)C [BAK, Bakuchiol]
viability at 4 h, 30 µM [1, 5]: 98.8% | viability at 4 h, 75 µM [1, 5]: 108% | viability at 4 h, 90 µM [1, 5]: 88.2% | viability at 4 h, 30 µM [1, 6]: 104 ± 4.32% | viability at 4 h, 45 µM ([1]; HK-2 cells co-cultured with HLMs (0.16 g/L), with HLMs 0.16 g/L, 4 h, mean): 105 ± 9.39% | viability at 4 h, 60 µM [1, 6]: 101 ± 9.76% | viability at 4 h, 75 µM [1, 6]: 109 ± 3.19% | viability at 4 h, 90 µM [1, 6]: 92.5 ± 2.07% | viability at 4 h, 60 µM ([1]; HK-2 cells, without HLM, raw data, read-out: cell viability(%), single values): 80.5% | viability at 4 h, 30 µM [1, 7]: 97.7 ± 10.7% | viability at 4 h, 45 µM ([1]; HK-2 cells, without HLMs, 4 h, mean): 84.6 ± 13.8% | viability at 4 h, 60 µM [1, 7]: 77.5 ± 4.69% | viability at 4 h, 75 µM [1, 7]: 55 ± 11.3% | viability at 4 h, 90 µM [1, 7]: 46.3 ± 12.5% | decreases in viability of HK-2 cells [2]: 25∼40% | 30min BAK metabolic percentage (%) ([3]; BAK 10 µM alone, HLMs, 30 min): 36.51% | Remaining percentage of BAK (%) ([3]; GA 0 µM, 30 min): 63.49 ± 6.05% and 63.49% | Remaining percentage of BAK (%) ([3]; GA 12.5 µM, 30 min): 71.60 ± 6.40% and 71.60% | remaining of BAK (%), single samples ([3]; GA 12.5 µM): 64.61% and 73.02% and 77.17% | Remaining percentage of BAK (%) ([3]; GA 62.5 µM, 30 min): 80.10 ± 6.81 % and 80.10% | remaining of BAK (%), single samples ([3]; GA 62.5 µM): 85.51% and 72.46% and 82.34% | remaining of BAK (%), single samples ([3]; GA 93.75 µM): 73.93% and 93.16% and 104.23% | Remaining percentage of BAK (%) ([3]; GA 125.0 µM, 30 min): 97.24 ± 1.46 % and 97.24% | remaining of BAK (%), single samples ([3]; GA 125 µM): 98.81% and 95.94% and 96.96% | remaining of BAK (%), single samples ([3]; no GA, HLM 0.5 mg/ml): 56.87% and 64.87% and 68.72% | BAK in kidney relative to liver ([4]; 24 h after administration): 1.37- to 1.54 fold | Exposure of BAK, Kidney, single rats ([4]; 24 h after single oral dose): 0.7466 µg/g and 0.7844 µg/g and 0.7813 µg/g and 0.8035 µg/g | Exposure of BAK, Liver, single rats ([4]; 24 h after single oral dose): 0.5617 µg/g and 0.5502 µg/g and 0.5630 µg/g and 0.5314 µg/g | concentration at 24 h ([4]; kidney, 24 h after single oral dose, read-out: Exposure of BAK, Kidney, mean): 755 ng/g | concentration at 24 h ([4]; kidney, 24 h after single oral dose, read-out: Exposure of BAK, Kidney, single rats): 661 ng/g | concentration at 24 h ([4]; liver, 24 h after single oral dose, read-out: Exposure of BAK, Liver, mean): 548 ng/g | concentration at 24 h ([4]; liver, 24 h after single oral dose, read-out: Exposure of BAK, Liver, single rats): 531 ng/g
